A short description of data set [1]: Lipophilicity determination by RP-HPLC (capacity factor k / log k). The conditions noted are these: Symmetry C18, MeOH 70% / H2O 30%, column 45 °C. Type of data set: physicochemical. An excerpt:
A Waters Alliance 2695 XE HPLC separation module and a Waters Photodiode Array Detector 2996 (Waters Corp., Milford, MA, USA) were used. A Symmetry® C18 5 μm, 4.6 × 250 mm chromatographic column, Part No. WAT054275 (Waters Corp., Milford, MA, USA) was used. The HPLC separation process was monitored by Empower™ 2 Chromatography Data Software, Waters 2009 (Waters Corp., Milford, MA, USA). A mixture of MeOH p.a. (70%) and H2O-HPLC–Mili-Q Grade (30%) was used as a mobile phase. The total flow of the column was 1.0 mL/min, injection volume, 30 μL, column temperature, 45 °C and sample temperature, 10 °C. The detection wavelength of 210 nm was chosen. The KI methanolic solution was used for the dead time (tD) determination. The retention times (tR) were measured in minutes. The capacity factors k were calculated using the Empower™ 2 Chromatography Data Software according to formula k = (tR− tD)/tD, where tR is the retention time of the solute, whereas tD denotes the dead time obtained using an unretained analyte. Log k, calculated from the capacity factor k, is used as the lipophilicity index converted to log P scale.

Data set [2] concerns the target T1, acetylcholinesterase (AChE) from electric eel (Electrophorus electricus, UniProt O42275).
T1 construct: purchased Sigma
The data set is described as follows: AChE inhibition, spectrophotometric Ellman's method. The class given is biochemical, Electrophorus electricus L. As to conditions: for IC50: electric eel AChE, Ellman's method, mean ± SD (n = 3 experiments); for AChE inhibition, fold higher than RIV: IC50 compared with rivastigmine. On the procedure:
The ability of the tested compounds to inhibit acetylcholinesterase (purchased from Sigma) from electric eel (Electrophorus electricus L.) was tested. […] The IC50 values were determined by the spectrophotometric Ellman’s method.
The IC50 values were determined using the spectrophotometric Ellman’s method, which is a simple, rapid and direct method to determine the SH and -S-S- group content in proteins. This method is widely used for measuring of cholinesterase activity and effectivity of cholinesterase inhibitors. Cholinesterase activity is measured indirectly by quantifying the concentration of 5-thio-2-nitrobenzoic acid (TNB) ion formed in the reaction between the thiol reagent 5,5′-dithiobis-2-nitrobenzoic acid (DTNB) and thiocholine, a product of substrate (i.e., acetylthiocholine, ATCh) hydrolysis by cholinesterase. All tested compounds were dissolved in dioxane (concentration 0.01 M) and then diluted in demineralised water (concentration 0.001 M and 0.0001 M). The procedure of determination of IC50 is a slightly modified Ellman’s method according to Zdrazilova and described in detail in [49]. For determination of IC50 values the inhibition was determined for 25 different compound concentrations with three replicates.
(In Ellman's method for cholinesterases, released thiocholine reacts with DTNB.)

Molecules are shown by their SMILES.

The IC50 is the point on the concentration scale where inhibition reaches its midpoint.

T1 sequence (O42275 24-633): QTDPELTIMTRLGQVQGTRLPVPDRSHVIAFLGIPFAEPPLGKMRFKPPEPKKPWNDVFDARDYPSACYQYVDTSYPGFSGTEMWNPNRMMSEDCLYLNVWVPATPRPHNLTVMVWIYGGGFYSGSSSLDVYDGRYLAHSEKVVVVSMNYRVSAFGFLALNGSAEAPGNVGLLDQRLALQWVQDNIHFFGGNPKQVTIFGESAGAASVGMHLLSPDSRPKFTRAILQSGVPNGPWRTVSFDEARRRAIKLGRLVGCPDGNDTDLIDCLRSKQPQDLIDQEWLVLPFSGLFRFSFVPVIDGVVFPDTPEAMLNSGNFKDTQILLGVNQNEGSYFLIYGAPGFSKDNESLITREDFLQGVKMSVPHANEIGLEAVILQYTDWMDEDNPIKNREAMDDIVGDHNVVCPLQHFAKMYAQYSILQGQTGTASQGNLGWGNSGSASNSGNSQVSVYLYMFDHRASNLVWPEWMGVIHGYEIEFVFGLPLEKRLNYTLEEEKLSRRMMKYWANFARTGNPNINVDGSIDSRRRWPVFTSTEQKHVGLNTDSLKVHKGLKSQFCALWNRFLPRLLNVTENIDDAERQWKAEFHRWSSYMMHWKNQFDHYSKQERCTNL

As to `CCCCCCCCCCNC(=O)Oc1ccc(Cl)cc1C(=O)Nc1ccc(Cl)cc1` [5h], the log k in data set [1] stood at 0.7942. This compound came in with an IC50 in data set [2] of 64.6 ± 0.41 µM.
In the case of `CCCCCNC(=O)Oc1ccc(Cl)cc1C(=O)Nc1cccc(Cl)c1` [4c], the log k in data set [1] was found to be 0.7732. The compound further gave an IC50 in data set [2] of 50.4 ± 0.48 µM.
In data set [1], `CCCCCCCCNC(=O)Oc1ccc(Cl)cc1C(=O)Nc1ccc(Cl)cc1` [5f] returned a log k of 0.7899. In addition, inhibition in data set [2] was half-maximal at 62.5 ± 0.41 µM (IC50).
Compound `CCCCCNC(=O)Oc1ccc(Cl)cc1C(=O)Nc1ccc(Cl)cc1` [5c] registered a log k in data set [1] of 0.7838. In data set [2], this compound yielded an IC50 of 41.7 ± 0.29 µM.
Regarding `CCCCNC(=O)Oc1ccc(Cl)cc1C(=O)Nc1cccc(Cl)c1` [4b], the log k in data set [1] was 0.7611.
Regarding `CCCCCCCCNC(=O)Oc1ccc(Cl)cc1C(=O)Nc1ccc(Cl)c(Cl)c1` [6f], in data set [1], the log k was 1.0845. Also, the IC50 in data set [2] stood at 32.1 ± 0.29 µM.
`CCCCCCCCCNC(=O)Oc1ccc(Cl)cc1C(=O)Nc1cccc(Cl)c1` [4g] displayed a log k in data set [1] of 0.7837. The IC50 in data set [2] is 34.2 ± 0.26 µM.
For the compound `CCCCCCCCCCNC(=O)Oc1ccc(Cl)cc1C(=O)Nc1ccc(Cl)c(Cl)c1` [6h], the log k in data set [1] is 1.0894. Moreover, in data set [2], the “AChE inhibition, fold higher than RIV” value was found to be 23 fold and inhibition was half-maximal at 21.8 ± 0.2 µM (IC50).
Take `CCCCNC(=O)Oc1ccc(Cl)cc1C(=O)Nc1ccc(Cl)c(Cl)c1` [6b]: the log k in data set [1] is given as 1.0457. This compound also showed an IC50 in data set [2] of 64.7 ± 0.79 µM.
Taken in the same sequence, the figures for `CCCCCCCNC(=O)Oc1ccc(Cl)cc1C(=O)Nc1cccc(Cl)c1` [4e] were 0.7772 and 61.7 ± 0.5 µM.
In data set [1], `CCCCCCCNC(=O)Oc1ccc(Cl)cc1C(=O)Nc1ccc(Cl)cc1` [5e] came in with a log k of 0.7872. The same compound had an IC50 in data set [2] of 49.4 ± 0.31 µM.
`CCCCCCCCNC(=O)Oc1ccc(Cl)cc1C(=O)Nc1cccc(Cl)c1` [4f] displayed a log k in data set [1] of 0.7831. In data set [2], this compound yielded a half-maximal inhibitory concentration (IC50) of 69.9 ± 0.49 µM.
Take `CCCCCCNC(=O)Oc1ccc(Cl)cc1C(=O)Nc1ccc(Cl)c(Cl)c1` [6d]: the log k in data set [1] was 1.0611. Further, the IC50 in data set [2] was determined as 41.2 ± 0.36 µM.
Taken in the same sequence, the figures for `CCCCCCCNC(=O)Oc1ccc(Cl)cc1C(=O)Nc1ccc(Cl)c(Cl)c1` [6e] were 1.0667 and 36.7 ± 0.28 µM.
The like results for `CCNC(=O)Oc1ccc(Cl)cc1C(=O)Nc1ccc(Cl)c(Cl)c1` [6a] were, in that order, 1.0234 and 67.3 ± 0.52 µM.
The compound `CCNC(=O)Oc1ccc(Cl)cc1C(=O)Nc1ccc(Cl)cc1` [5a] had a log k in data set [1] of 0.7695. Further, in data set [2], the midpoint of inhibition, the IC50, lay at 59.1 ± 0.33 µM.
Consider `CCCCCCCCCCCNC(=O)Oc1ccc(Cl)cc1C(=O)Nc1ccc(Cl)c(Cl)c1` [6i], for which the log k in data set [1] worked out at 1.0903. Further, in data set [2], the “AChE inhibition, fold higher than RIV” value is reported as 16 fold and the IC50 was determined as 29.9 ± 0.22 µM.
Consider `CCCCCCNC(=O)Oc1ccc(Cl)cc1C(=O)Nc1cccc(Cl)c1` [4d], for which, in data set [1], the log k was 0.7758. The compound further came in with an IC50 in data set [2] of 35.1 ± 0.31 µM.
Regarding `CCCCCCCCCNC(=O)Oc1ccc(Cl)cc1C(=O)Nc1ccc(Cl)c(Cl)c1` [6g], the log k in data set [1] was determined as 1.0880. The compound also gave an IC50 in data set [2] of 43.9 ± 0.32 µM.
For the compound `CCNC(=O)Oc1ccc(Cl)cc1C(=O)Nc1cccc(Cl)c1` [4a], the log k in data set [1] came out at 0.7523.
`CCCCCCCCCCNC(=O)Oc1ccc(Cl)cc1C(=O)Nc1cccc(Cl)c1` [4h] came in with a log k in data set [1] of 0.7873. This compound returned an IC50 in data set [2] of 52.7 ± 0.45 µM.
`CCCCCCCCCNC(=O)Oc1ccc(Cl)cc1C(=O)Nc1ccc(Cl)cc1` [5g] yielded a log k in data set [1] of 0.7919. Also, in data set [2], half-maximal inhibition (IC50) required 52.2 ± 0.39 µM.
In turn, `CCCCCCNC(=O)Oc1ccc(Cl)cc1C(=O)Nc1ccc(Cl)cc1` [5d] registered a log k in data set [1] of 0.7859. Besides, the IC50 in data set [2] turned out to be 31 ± 0.29 µM.
Compound `CCCCNC(=O)Oc1ccc(Cl)cc1C(=O)Nc1ccc(Cl)cc1` [5b] showed a log k in data set [1] of 0.7759. Moreover, inhibition in data set [2] was half-maximal at 48.1 ± 0.31 µM (IC50).
In data set [1], `CCCCCNC(=O)Oc1ccc(Cl)cc1C(=O)Nc1ccc(Cl)c(Cl)c1` [6c] had a log k of 1.0601. Further, inhibition in data set [2] was half-maximal at 56 ± 0.42 µM (IC50).
In data set [1], `CCCCCCCCCCCNC(=O)Oc1ccc(Cl)cc1C(=O)Nc1ccc(Cl)cc1` [5i] had a log k of 0.7947. For the same compound, in data set [2], the IC50 is 44.3 ± 0.33 µM.
`CCCCCCCCCCCNC(=O)Oc1ccc(Cl)cc1C(=O)Nc1cccc(Cl)c1` [4i] displayed a log k in data set [1] of 0.7902. The compound further showed an IC50 in data set [2] of 56.9 ± 0.48 µM.

Values taken from PMC6268027, “Acetylcholinesterase-Inhibiting Activity of Salicylanilide N-Alkylcarbamates and Their Molecular Docking” (Molecules, 2012).
